According to US12629354B2, “Sustained-release pharmaceutical compositions comprising of a sedative drug and uses thereof” (TAIWAN LIPOSOME CO., LTD., priority 2018, dated 2026):
Counter-ions that a name gives are not always drawn.

Tests used:
in vivo = conditions: rat
Description: The rats were housed in a holding room which operated on a 12-hr light/12-hr dark circadian cycle with free access to water and food.
The rats were divided into two groups (n=4 in each group), one group received intramuscular (IM) injection of 100 μg/kg of free dexmedetomidine hydrochloride, prepared by dissolving the dexmedetomidine hydrochloride in 9.4% sucrose solution with a final concentration of 250 μg/mL. The other group received IM injection of 106 μg/kg of liposomal dexmedetomidine hydrochloride, prepared according to Example 1. Blood samples were collected at 15, 30 min, 1, 2, 4, 8, 24, 48, and 72 hours post-injection. Plasma samples were obtained by centrifugation, kept frozen at −80° C. and analyzed using liquid chromatography-tandem mass spectrometry. The plasma concentrations versus time curves were analyzed using a noncompartmental analysis model in PKSolver (Comput. Methods Programs Biomed. 2010; 99(3):306-314).

[1] = plasma free dialysis bag, within 2 hours
Description: Two in vitro release systems were used in the study, the first system was the plasma free environment and the second system was the human plasma environment. […] Each dialysis bag was immersed in 20 mL of PBS at pH 7.4 in a 50-mL centrifuge tube and incubated at 37±1° C. water bath for 168 or 72 hours. At designated time points after incubation (1, 2, 4, 6, 24, 50, 72, 100 and 168 hours of first system and 1, 2, 4, 8, 24, 48 and 72 hours of second system), 1.0 mL aliquot from the 20-mL PBS was sampled and 1.0 mL of fresh PBS was added to replenish the sampling aliquot. Drug concentrations of the sampled aliquots at each time point were analyzed using HPLC to create the in vitro release profile of the tested formulations.

guinea pigs [2] = assay: Pharmacodynamic study, pin prick test after intracutaneous injection of 4 formulations; type: in vivo; conditions: 1.5 mg ropivacaine with or without 0.2 μg L-DEX in the same injection
Description: The guinea pigs were housed in a holding room which operated on a 12-hr light/12-hr dark circadian cycle with free access to water and food.
Four guinea pigs were used in this study and each guinea pig received 4 intracutaneous injections of 4 different formulations on its back to create 4 individual wheals respectively (i.e., 4 wheals per formulation), as illustrated in FIG. 3A. […] Briefly, 339.0 mg of DMPC, 96.7 mg of cholesterol and 200.0 mg of ropivacaine were dissolved in 10 mL of tert-butanol and lyophilized. The lyophilized cake was hydrated with a 50 mM histidine solution, pH 6, to form multilamellar vesicles (MLVs) with entrapped ropivacaine (liposomal ropivacaine composition), and the concentration of ropivacaine was diluted to 15.0 mg/mL with 9.4% sucrose solution. The anesthesia effect of ropivacaine was assessed at 30 minutes (0.5 hour), 1.0, 1.5, 2.0, 2.5, 3.0, 3.5, 4.0, 5.0, 6.0, 7.0, 8.0, 10 and 24 hours post-injection. The anesthetic effect was determined by observing the guinea pig's response to stimuli around individual wheals (pin prick test). PD data obtained from the pin prick tests were analyzed using an inhibitory effect sigmoid Emax model in PKSolver (Comput Methods Programs Biomed. 2010; 99(3):306-314).

guinea pigs [3] = assay: Pharmacodynamic study, pin prick test with L-DEX or saline injected intramuscularly at a distant site; type: in vivo; conditions: 1.5 mg ropivacaine intracutaneous, IM saline or 2.0 μg/kg L-DEX outside the pin prick area
Description: Four guinea pigs were used in this study and was divided into two groups (Groups A and B). […] Each guinea pig in Group A and Group B received 4 intracutaneous injections on its back. Of the 4 intracutaneous injections, 2 injections delivered 1.5 mg of free ropivacaine each and the other two injections delivered 1.5 mg of liposomal ropivacaine composition each. The anesthetic effect of ropivacaine was assessed at 30 minutes (0.5 hour), 1.0, 1.5, 2.0, 2.5, 3.0, 3.5, 4.0, 5.0, 6.0, 7.0, 8.0 and 10 hours post-injection. The anesthetic effect was determined by observing the guinea pig's response to stimuli around individual wheals (i.e., pin prick test). PD data obtained from the pin prick tests was analyzed using an inhibitory effect sigmoid Emax model in PKSolver (Comput Methods Programs Biomed. 2010; 99(3):306-314).

[4] = female, Sprague-Dawley, im, 100 ug/kg

AUC(0-inf) (in vivo; [4]) [ng·h/mL] | AUC(0-t) (in vivo; [4]) [ng·h/mL] | Cmax (in vivo; [4]) [ng/mL] | half-life (in vivo; [4]) [h] | dexmedetomidine released as indicated by AUC0-t (in vivo; female, Sprague-Dawley, im, 8 h) [%] | dexmedetomidine in the plasma of rats (in vivo) | dexmedetomidine released [1] [%] | Compound | TE50 (time to half maximal effect) (guinea pigs [2]) [h] | Non-response time (guinea pigs [3]) [h] | TE50 (guinea pigs [3]) [h]
35.1 | 31.4 | 11 | 2.36 | 100 | undetectable | ~100 | Cc1cccc([C@H](C)c2cnc[nH]2)c1C [Free Dexmedetomidine, dexmedetomidine hydrochloride] | – | – | –
– | – | – | – | – | – | – | CCCN1CCCC[C@H]1C(=O)Nc1c(C)cccc1C [Free Ropivacaine, ropivacaine hydrochloride monohydrate] | 4.5 | 0.5 | 1.6
